Laboratory results from BindingDB's records for doi:10.1016/s0014-2999(03)02008-9 (Harvard University, 2003).

Legend:
[1] = target: 5-hydroxytryptamine receptor 2A (Rattus norvegicus, UniProt P14842)
[2] = target: D(2) dopamine receptor (Rattus norvegicus, UniProt P61169)
[3] = target: D(1B) dopamine receptor (Homo sapiens, UniProt P21918)
[4] = target: T1, Alpha-2C adrenergic receptor (Rattus norvegicus, UniProt P22086)
T1 sequence (P22086 whole entry): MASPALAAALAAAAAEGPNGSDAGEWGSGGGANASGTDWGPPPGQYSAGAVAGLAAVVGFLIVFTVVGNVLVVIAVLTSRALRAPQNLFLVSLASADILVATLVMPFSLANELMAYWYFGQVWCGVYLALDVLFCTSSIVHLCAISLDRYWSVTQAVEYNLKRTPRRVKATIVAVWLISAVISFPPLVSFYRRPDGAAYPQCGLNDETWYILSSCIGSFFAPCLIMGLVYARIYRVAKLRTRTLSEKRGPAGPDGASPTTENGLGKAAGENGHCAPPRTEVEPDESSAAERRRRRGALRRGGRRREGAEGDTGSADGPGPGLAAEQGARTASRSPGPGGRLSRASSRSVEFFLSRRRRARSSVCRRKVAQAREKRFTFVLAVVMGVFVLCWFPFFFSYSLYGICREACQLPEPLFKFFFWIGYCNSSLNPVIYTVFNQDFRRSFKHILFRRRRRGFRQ

[5] = target: D(1A) dopamine receptor (Rattus norvegicus, UniProt P18901)
Sequence of D(1A) dopamine receptor (P18901 whole entry): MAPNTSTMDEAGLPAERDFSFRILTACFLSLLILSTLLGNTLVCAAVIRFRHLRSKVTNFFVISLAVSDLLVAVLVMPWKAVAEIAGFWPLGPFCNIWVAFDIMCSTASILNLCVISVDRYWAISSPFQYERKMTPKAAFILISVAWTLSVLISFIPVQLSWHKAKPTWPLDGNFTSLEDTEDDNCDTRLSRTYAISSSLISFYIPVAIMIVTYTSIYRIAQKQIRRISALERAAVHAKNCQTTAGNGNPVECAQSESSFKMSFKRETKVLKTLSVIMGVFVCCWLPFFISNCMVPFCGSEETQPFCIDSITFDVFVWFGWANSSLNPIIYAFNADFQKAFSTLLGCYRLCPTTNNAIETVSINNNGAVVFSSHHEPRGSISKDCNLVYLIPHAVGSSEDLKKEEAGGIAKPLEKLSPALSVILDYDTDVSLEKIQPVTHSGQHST

[6] = target: T2, Solute carrier family 22 member 2 (Rattus norvegicus, UniProt Q9R0W2)
T2 sequence (Q9R0W2 whole entry): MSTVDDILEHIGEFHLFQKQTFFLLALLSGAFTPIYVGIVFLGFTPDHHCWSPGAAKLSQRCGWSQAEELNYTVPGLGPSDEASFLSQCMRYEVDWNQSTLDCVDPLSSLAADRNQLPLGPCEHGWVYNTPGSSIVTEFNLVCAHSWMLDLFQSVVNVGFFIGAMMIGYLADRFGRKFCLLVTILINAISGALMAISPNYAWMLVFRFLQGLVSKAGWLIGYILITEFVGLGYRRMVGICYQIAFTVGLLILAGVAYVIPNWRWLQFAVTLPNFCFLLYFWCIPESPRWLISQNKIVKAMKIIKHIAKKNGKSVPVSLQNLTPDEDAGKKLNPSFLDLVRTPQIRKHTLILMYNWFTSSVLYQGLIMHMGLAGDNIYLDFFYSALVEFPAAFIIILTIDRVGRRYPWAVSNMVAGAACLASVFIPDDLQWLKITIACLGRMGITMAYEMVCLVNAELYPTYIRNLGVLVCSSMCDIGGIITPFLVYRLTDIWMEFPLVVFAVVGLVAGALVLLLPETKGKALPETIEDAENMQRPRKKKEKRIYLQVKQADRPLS

Sequence of D(2) dopamine receptor (P61169 whole entry): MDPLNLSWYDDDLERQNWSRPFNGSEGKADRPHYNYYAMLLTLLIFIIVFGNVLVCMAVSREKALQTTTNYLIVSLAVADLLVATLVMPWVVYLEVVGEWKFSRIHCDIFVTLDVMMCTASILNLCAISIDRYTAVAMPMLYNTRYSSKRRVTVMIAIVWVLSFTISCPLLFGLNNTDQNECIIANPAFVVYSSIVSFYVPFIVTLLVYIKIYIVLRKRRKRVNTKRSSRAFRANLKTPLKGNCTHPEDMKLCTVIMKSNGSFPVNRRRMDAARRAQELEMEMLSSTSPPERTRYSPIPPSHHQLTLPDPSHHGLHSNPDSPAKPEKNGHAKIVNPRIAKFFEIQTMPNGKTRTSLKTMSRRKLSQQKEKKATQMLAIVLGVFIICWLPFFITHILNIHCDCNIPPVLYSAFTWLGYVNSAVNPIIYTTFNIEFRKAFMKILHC
Sequence of D(1B) dopamine receptor (P21918 whole entry): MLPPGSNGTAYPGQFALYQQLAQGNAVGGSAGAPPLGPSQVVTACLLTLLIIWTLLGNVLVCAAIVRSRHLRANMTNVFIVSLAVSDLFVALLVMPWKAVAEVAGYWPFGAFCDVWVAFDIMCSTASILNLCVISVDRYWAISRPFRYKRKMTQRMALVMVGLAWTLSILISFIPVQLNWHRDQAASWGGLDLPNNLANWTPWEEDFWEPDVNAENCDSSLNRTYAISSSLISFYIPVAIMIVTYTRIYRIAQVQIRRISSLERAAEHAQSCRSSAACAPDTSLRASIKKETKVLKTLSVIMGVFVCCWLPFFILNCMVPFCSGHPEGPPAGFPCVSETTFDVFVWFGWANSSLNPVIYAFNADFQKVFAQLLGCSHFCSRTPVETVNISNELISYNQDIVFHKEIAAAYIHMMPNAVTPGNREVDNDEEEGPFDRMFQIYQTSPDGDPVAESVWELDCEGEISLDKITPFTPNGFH
Sequence of 5-hydroxytryptamine receptor 2A (P14842 whole entry): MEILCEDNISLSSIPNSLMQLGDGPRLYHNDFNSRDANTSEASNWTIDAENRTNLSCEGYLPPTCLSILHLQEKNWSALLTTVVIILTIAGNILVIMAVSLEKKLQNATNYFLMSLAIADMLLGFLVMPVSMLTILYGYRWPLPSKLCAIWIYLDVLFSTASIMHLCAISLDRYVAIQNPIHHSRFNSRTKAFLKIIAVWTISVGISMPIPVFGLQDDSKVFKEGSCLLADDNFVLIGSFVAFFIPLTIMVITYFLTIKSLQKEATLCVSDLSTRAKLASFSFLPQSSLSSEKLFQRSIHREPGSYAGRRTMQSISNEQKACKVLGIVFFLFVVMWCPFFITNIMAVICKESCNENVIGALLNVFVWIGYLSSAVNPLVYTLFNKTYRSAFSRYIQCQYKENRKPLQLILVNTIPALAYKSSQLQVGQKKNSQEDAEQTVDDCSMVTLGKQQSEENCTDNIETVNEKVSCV

Row | Ki [1] [nM] | Ki [2] [nM] | Ki [3] [nM] | Ki [4] [nM] | Ki [5] [nM] | Ki [6] [nM] | Structure (SMILES)
1 | 45.8 | 409 | 3.42 | 186 | 1.1 | – | Cc1ccccc1C1CN(C)CCc2c1cc(O)c(O)c2Br (stereo not drawn) [MCL-214]
2 | 10.8 | – | – | 208 | – | – | CN1CCc2cc(Cl)c(O)cc2C(c2ccccc2)C1 (stereo not drawn) [NSC_5018]
3 | 977 | 1700 | – | 1090 | 128 | – | C=CCN1CCc2c(cc(O)c(O)c2Br)C(c2ccc(C)cc2)C1 (stereo not drawn) [MCL-213]
4 | 398 | 19.5 | 1.95 | 133 | 1.81 | – | Cc1ccccc1C1CNCCc2c1cc(O)c(O)c2Br (stereo not drawn) [MCL-216]
5 | 995 | 119 | 9.94 | 877 | 0.52 | – | C=CCN1CCc2c(cc(O)c(O)c2Cl)C(c2cccc(C)c2)C1 (stereo not drawn) [MCL-210]
6 | 742 | 239 | – | 414 | 37.1 | – | C=CCN1CCc2c(cc(O)c(O)c2Br)C(c2ccccc2C)C1 (stereo not drawn) [MCL-215]
7 | 147 | 362 | 3.96 | 250 | 1.93 | – | Cc1ccc(C2CN(C)CCc3c2cc(O)c(O)c3Cl)cc1 (stereo not drawn) [MCL-206]
8 | 995 | – | – | 509 | – | – | Oc1cc2c(c(Cl)c1O)CCNCC2c1ccccc1 (stereo not drawn) [NSC_1218]
9 | 598 | 83.8 | 12 | 709 | 0.11 | – | C=CCN1CCc2c(cc(O)c(O)c2Br)C(c2cccc(C)c2)C1 (stereo not drawn) [MCL-204]
10 | 88.6 | 515 | 1.53 | – | 0.49 | 3000 | Cc1cccc([C@@H]2CN(C)CCc3c2cc(O)c(O)c3Cl)c1 [MCL-202]
11 | – | – | – | – | > 10000 | – | Cc1cccc([C@@H]2CN(C)CCc3c(Cl)cc(O)cc32)c1 [MCL-230A]
12 | – | 2140 | – | 632 | 21.3 | – | Cc1cccc([C@H]2CN(C)CCc3c2cc(O)c(O)c3Cl)c1 [MCL-201]
13 | 266 | 920 | 7.56 | 295 | 1.18 | – | Cc1cccc([C@H]2CN(C)CCc3c2cc(O)c(O)c3Cl)c1
14 | 124 | 1030 | 4.36 | 493 | 19.3 | – | Cc1ccc(C2CN(C)CCc3c2cc(O)c(O)c3Br)cc1 (stereo not drawn) [MCL-212]
15 | 224 | 440 | 2.47 | 461 | 0.19 | – | Cc1cccc([C@@H]2CN(C)CCc3c2cc(O)c(O)c3Br)c1 [MCL-203]
16 | 1200 | 5000 | 0.88 | 240 | 0.6 | – | Cc1cccc(C2CNCCc3c2cc(O)c(O)c3Cl)c1 (stereo not drawn) [MCL-209]
17 | 992 | > 10000 | – | 776 | 1240 | – | Oc1cc2c(c(Br)c1O)CCNC[C@H]2c1cccc(C(F)(F)F)c1 [MCL-218]
18 | 70.6 | – | 2.32 | 66.6 | 0.46 | – | Cc1ccccc1C1CN(C)CCc2c1cc(O)c(O)c2Cl (stereo not drawn) [NSC_0]
19 | 1300 | 1070 | 13.7 | 338 | 4.41 | – | Cc1cccc(C2CNCCc3c2cc(O)c(O)c3Br)c1 (stereo not drawn) [MCL-205]
20 | 3000 | – | – | 632 | – | – | C=CCN1CCc2cc(O)c(O)cc2C(c2ccccc2)C1 (stereo not drawn)
21 | 1610 | – | – | 558 | – | – | C=CCN1CCc2c(cc(O)c(O)c2Cl)C(c2ccccc2)C1 (racemic) [SKF 82958]
22 | 68.9 | 1050 | – | 365 | 8.66 | – | CN1CCc2c(cc(O)c(O)c2Br)[C@H](c2cccc(C(F)(F)F)c2)C1 [MCL-211]
23 | > 10000 | – | – | 248 | – | – | Oc1cc2c(cc1O)C(c1ccccc1)CNCC2 (racemic) [(+/-)-SKF-38393]

Row | Structure (SMILES) | Ki [1] [nM] | Ki [2] [nM] | Ki [3] [nM] | Ki [4] [nM] | Ki [5] [nM] | Ki [6] [nM]
24 | C=CCN1CCc2c(cc(O)c(O)c2Br)C(c2ccccc2C(F)(F)F)C1 (stereo not drawn) [MCL-217] | > 10000 | > 10000 | – | > 10000 | > 10000 | –
